Assay results: US20240181049A1, “HARNESSING THE POWER OF MICROBIOTA AND METABOLITES FOR THE TREATMENT OF CANCER” (UTI LIMITED PARTNERSHIP, priority 2019, published 2024)

What was measured:
T cells in the MLN = experiment: Th1 activation in vivo after ovalbumin/CpG immunization; design: species or system GF mice; conditions: 300 mg/kg/BW i.p.; vs vehicle
Protocol: FIG. 5A-5L: Inosine promotes Th1 activation and anti-tumor immunity. (a) Schematic overview of experimental setup to assess the effect of inosine on Th1 activation in vivo. (b, c) Representative dot plots and quantification (left and right panel respectively) of T-bet^+IFN-γ^+CD3ε^+ (b) CD8^+ or (c) CD4^+ T cells in the MLN. (d) Schematic overview of experimental setup to assess the effect of inosine on anti-tumor immunity. Upon palpable tumors, mice were treated with 100 μg anti-CTLA-4 i.p. (5 times every 72 hours) and in some groups 20 μg CpG i.p. (5 times every 72 hours). In addition, inosine (300 mg/KG/BW) or PBS was given daily orally (O), through gavage or systemically (S) through i.p. injection. (e) Tumor weight and quantification of IFN-γ^+ cells amongst (f) CD4^+ or (g) CD8^+ cells are shown. (h). Schematic overview to assess the requirement of A2AR signaling for inosine-induced anti-tumor immunity. […] (j) Tumor weight and quantification of IFN-γ^+ in (k) CD8^+ or (l) CD4^+ cells in the tumor are shown. […]
(§1) To evaluate the effect of inosine on Th1 activation, mice received 30 μg CpG, […] EndoFit Ovalbumin (both Invivogen) and 2 μg OVA323-339 (Sigma) i.p. and 24 hours later mice received 300 mg/kg/BW inosine or PBS as a control through i.p. injection. T cell differentiation was assessed 48 hours later. […]

MC38 tumor cells [1] = experiment: MC38 tumors in GF Rag1-deficient mice receiving WT or A2AR-deficient T cells, inosine + anti-CTLA-4 + CpG; assay type: in vivo; conditions: WT vs A2AR-deficient T cells
Protocol: (§2) FIG. 5A-5L: Inosine promotes Th1 activation and anti-tumor immunity. (a) Schematic overview of experimental setup to assess the effect of inosine on Th1 activation in vivo. (b, c) Representative dot plots and quantification (left and right panel respectively) of T-bet^+IFN-γ^+CD3ε^+ (b) CD8^+ or (c) CD4^+ T cells in the MLN. (d) Schematic overview of experimental setup to assess the effect of inosine on anti-tumor immunity. Upon palpable tumors, mice were treated with 100 μg anti-CTLA-4 i.p. (5 times every 72 hours) and in some groups 20 μg CpG i.p. (5 times every 72 hours). In addition, inosine (300 mg/KG/BW) or PBS was given daily orally (O), through gavage or systemically (S) through i.p. injection. (e) Tumor weight and quantification of IFN-γ^+ cells amongst (f) CD4^+ or (g) CD8^+ cells are shown. (h). Schematic overview to assess the requirement of A2AR signaling for inosine-induced anti-tumor immunity. 1×10^6 MC38 cells (s.c.) and WT or A2AR-deficient 1×10^7 T cells (i.v. 6×10^6 CD4^+ and 4×10^6 CD8^+ cells) were injected. Upon palpable tumors, mice were treated with 100 μg anti-CTLA-4, 20 μg CpG (4 times every 72 hours, both i.p.) and inosine (daily, 300 mg/KG/BW, through gavage). (i) Pictures of tumors are shown at day 20. scale bars: 1 cm. (j) Tumor weight and quantification of IFN-γ^+ in (k) CD8^+ or (l) CD4^+ cells in the tumor are shown. Data are mean±SEM and pooled from two individual experiments (a-l) 10-11 mice/group. *, P<0.05; **, P<0.01; ***, P<0.001.
as §1, with “later. To assess the impact of inosine on tumor development during ICB therapy 1×10^6 cancer cells were injected subcutaneously (s.c.) in the flank of germ-free mice.” for “later.”

MC38 tumor cells [2] = experiment: MC38 tumors in GF mice: inosine with anti-CTLA-4 with or without CpG; assay type: in vivo
Protocol: as §2
FIG. 18A-18H: Classical dendritic cells are required for bacteria dependent effect of ICB. (a) IL-12p70 expression in classical dendritic cells (MHCII^+CD11c^+B220^−CD64^−) and macrophages (MHCII^+CD11c^+B220^−, CD64^+) (b) Quantification of IL-12p70 expression in macrophages and cDCs. Classical dendritic cells were depleted with diphtheria toxin (DT) in bone marrow chimeric mice after MC38 tumor challenge, followed by anti-CTLA-4 treatment (see FIG. 4h for experimental setup). Quantification of splenic (c) IFN-γ^+CD8^+ or (d) Ki-67^+ CD8^+ T cells. (e and f) same as (c and d) but for CD4^+ T cells. (g and h) 1×10^6 MC38 cells (s.c.) were injected in GF mice. Seven days later upon palpable tumors, mice were treated with 100 μg anti-CTLA-4 i.p. (5 times every 72 hours) and in some groups 20 μg CpG i.p. (5 times every 72 hours). In addition, inosine (300 mg/KG/BW) or PBS was given daily orally (O), through gavage or systemically (S) through i.p. injection. Quantification of Ki-67^+ cells is shown. […]
as §1

MC38-OVA cells = experiment: T cell-mediated killing of inosine-pretreated MC38-OVA cells; assay type: cell-based; conditions: pretreatment of tumor cells prior to co-culture with activated tumor-specific T cells
Protocol: FIG. 17A-17B. […] (a) MC38 tumor cells were treated with the indicated doses of inosine in vitro for 72 hours. Cell death and survival was assessed through flow cytometry. (b) MC38 tumor cells expressing full length ovalbumin (MC38-OVA) were treated with the indicated doses of inosine in vitro for 72 hours. In parallel, OVA-specific naïve CD4 and CD8 T cells from spleens of OT-II and OT-I mice, respectively, were activated with anti-CD3/anti-CD28 beads and rmIL-2 (20 IU/ml) for 72 hours. Inosine was then washed away from conditioned MC38-OVA cells and fresh medium together with activated T cells were added (100,000 MC38-OVA cells+25,000 CD4 cells+25,000 CD8 cells). 72 hours later, cell death and survival of MC38-OVA cells was assessed through flow cytometry. Grey and black dash-dotted lines indicate MC38-OVA cell viability and death when co-cultured with naïve OVA-specific CD4 and CD8 T cells. Data are mean±SEM and pooled from two individual experiments. n=6 biological replicates/condition. #, & P<0.05, **, P<0.01; (**=0.0001 vs 10 mM, #0.001 vs 10 mM and & 1 vs 10 mM)

[3] = with anti-CTLA-4, in the absence of CpG
[4] = with anti-CTLA-4 and CpG, oral or systemic, vs PBS

## OC[C@H]1O[C@@H](n2cnc3c(O)ncnc32)[C@H](O)[C@@H]1O [inosine]
T cells in the MLN
  proportions of T-bet+, IFN-γ+ CD8+ and CD4+ T cells in the MLN: increased
MC38 tumor cells [1]
  IFN-γ production within tumors: WT but not A2AR-deficient T cells displayed increased IFN-γ production within tumors
  tumor weights: only GF mice receiving WT T cells showed reduced tumor weights
MC38 tumor cells [1]; inosine oral
  anti-CTLA-4/CpG-mediated anti-tumor immunity: enhanced anti-CTLA-4/CpG-mediated anti-tumor immunity in animals that received WT but not A2AR-deficient T cells
MC38 tumor cells [2]; [3]
  anti-tumor immunity: reduced anti-tumor immunity
  tumor weight: increased tumor weight
MC38 tumor cells [2]; [4]
  anti-tumor immunity: increased anti-tumor immunity
  tumor weight: reduction of tumor weight
MC38-OVA cells
  T cell-mediated killing of tumor cells: did not promote or inhibit T cell-mediated killing of tumor cells
